In general, EC50 refers to the concentration giving half of the maximal effect. What is called IC50 is the point on the concentration scale where inhibition reaches its midpoint. Read a high IC50 as weaker potency in that assay.

Read-outs that look alike come from different tables or passages of the source.

The record followed here is US9701677B2, “Fused pyrimidine compounds” (Gilead Sciences, Inc., priority 2014, dated 2017).

Holding throughout (type): cell-based
The test system of one experiment is HIV-1 HBX2 (wild type). In words: High throughput cytopathic effect assay in MT-4 cells, wild type HIV-1. The text has this:
(§1) Compounds were screened in a miniaturized, high throughput cytopathic effect assay for activity against HIV-1 HBX2 (wild type) and HIV-1 reverse transcriptase mutants K103N and Y181C. In Tables 1 and 2 below, “w.t.” refers to results of the tested compounds run with the wildtype 1 and “w.t. assay 2” refers results of the tested compounds run with the wildtype on the same day as the testing of the compounds with the mutants. Thus, “w.t. assay 2” was run under the same conditions as the testing of the compounds with the mutants and provides a direct comparison with the results from the testing with the mutants.
(§2) Ten-point serial dilutions of compounds with half-log step size were generated in DMSO. AZT (5 μM) was used as the positive control and DMSO as the negative control. The Echo acoustic dispenser was used to deliver 200 nL of serially diluted compound into sterile 384 well tissue culture assay plates. Two million MT-4 cells were incubated with each of the 3 viruses at MOI of 0.0005 in separate 1 mL infection tubes for 1 hour at 37° C. The cells were diluted in cell culture medium (RPMI+10% FBS) to 50,000 cells/mL. The infected cells were added to 384 well assay plates containing serially dilute compounds. Assay plates were incubated for 5 days in a humidified incubator set at 37° C. and 5% CO2. To measure the cytopathic effect of HIV, 40 μL Cell TiterGlo was added to each well and the resulting luminescence signal is read with the Envision plate reader (Perkin Elmer). Data were normalized to positive and negative controls in each plate and expressed as % CPE Protection. […]

Experiment [1] has as its system HIV-1 reverse transcriptase mutant K103N. In words: High throughput cytopathic effect assay in MT-4 cells, K103N mutant. The following applies: for EC50: Human immunodeficiency virus 1, MT4, 120 h, read-out: MT4 EC50 (nM) against K103N; for FC against mutant K103N: fold change of EC50, K103N versus w.t. assay 2.
From the text: as §1, §2

Experiment [2] concerns HIV-1 reverse transcriptase mutant Y181C. In words: High throughput cytopathic effect assay in MT-4 cells, Y181C mutant. The following applies: for EC50: Human immunodeficiency virus 1, MT4, 120 h, read-out: MT4 EC50 (nM) against Y181C; for FC against mutant Y181C: fold change of EC50, Y181C versus w.t. assay 2.
From the text: as §1, §2

The next experiment has as its target T1, hERG channels (Homo sapiens, UniProt Q12809).
T1 construct: host or cells: CHO cell line stably expressing hERG
In words: hERG assay, whole cell recordings in CHO cell line stably expressing hERG channels. As to conditions: CHO cells expressing hERG, tail current, Table 3. The protocol:
Cells were cultured in DMEM/F12 containing 10% FBS, 1% penicillin/streptomycin and 500 μg/ml G418. Before testing, cells were harvested using Accumax (Innovative Cell Technologies).
Cells were voltage clamped at a holding potential of −80 mV. The hERG current was then activated by a depolarizing step to −50 mV for 300 ms. This first step at −50 mV was used as a baseline for measuring peak amplitude of the tail current. Next, a voltage step to +20 mV was applied for 5 s to activate the channels. Finally, a step back to −50 mV for 5 s removed activation and the deactivating tail current was recorded.
Solutions were mixed by sonication for 20 min, followed by vigorous vortexing. Prior to testing, compounds were diluted to test concentrations in glass vials using External Solution. Dilutions were prepared no longer than 20 min prior to use.
External solution containing 0.1% DMSO (vehicle) was applied to the cells to establish a baseline. […] Test article solutions were added to cells in 4 separate additions. Cells were kept in test solution until effect of the test article reached steady state, to a maximum of 12 min. Next, 1 μM cisapride (positive control) was added. Finally, washout with External Solution was performed until the recovery current reached steady state.
On the technique in general: hERG is a cardiac potassium channel; its block is linked to QT prolongation.

Where [3] appears, read: Human immunodeficiency virus 1, MT4, 120 h, MT-4 cells, HIV-1 wild type, 5 days, CPE protection (Cell TiterGlo), read-out: MT4 EC50 (nM) against w.t.
[4] abbreviates: Human immunodeficiency virus 1, MT4, read-out: MT4 EC50 (nM) against w.t. assay 2.

T1 sequence (Q12809 whole entry): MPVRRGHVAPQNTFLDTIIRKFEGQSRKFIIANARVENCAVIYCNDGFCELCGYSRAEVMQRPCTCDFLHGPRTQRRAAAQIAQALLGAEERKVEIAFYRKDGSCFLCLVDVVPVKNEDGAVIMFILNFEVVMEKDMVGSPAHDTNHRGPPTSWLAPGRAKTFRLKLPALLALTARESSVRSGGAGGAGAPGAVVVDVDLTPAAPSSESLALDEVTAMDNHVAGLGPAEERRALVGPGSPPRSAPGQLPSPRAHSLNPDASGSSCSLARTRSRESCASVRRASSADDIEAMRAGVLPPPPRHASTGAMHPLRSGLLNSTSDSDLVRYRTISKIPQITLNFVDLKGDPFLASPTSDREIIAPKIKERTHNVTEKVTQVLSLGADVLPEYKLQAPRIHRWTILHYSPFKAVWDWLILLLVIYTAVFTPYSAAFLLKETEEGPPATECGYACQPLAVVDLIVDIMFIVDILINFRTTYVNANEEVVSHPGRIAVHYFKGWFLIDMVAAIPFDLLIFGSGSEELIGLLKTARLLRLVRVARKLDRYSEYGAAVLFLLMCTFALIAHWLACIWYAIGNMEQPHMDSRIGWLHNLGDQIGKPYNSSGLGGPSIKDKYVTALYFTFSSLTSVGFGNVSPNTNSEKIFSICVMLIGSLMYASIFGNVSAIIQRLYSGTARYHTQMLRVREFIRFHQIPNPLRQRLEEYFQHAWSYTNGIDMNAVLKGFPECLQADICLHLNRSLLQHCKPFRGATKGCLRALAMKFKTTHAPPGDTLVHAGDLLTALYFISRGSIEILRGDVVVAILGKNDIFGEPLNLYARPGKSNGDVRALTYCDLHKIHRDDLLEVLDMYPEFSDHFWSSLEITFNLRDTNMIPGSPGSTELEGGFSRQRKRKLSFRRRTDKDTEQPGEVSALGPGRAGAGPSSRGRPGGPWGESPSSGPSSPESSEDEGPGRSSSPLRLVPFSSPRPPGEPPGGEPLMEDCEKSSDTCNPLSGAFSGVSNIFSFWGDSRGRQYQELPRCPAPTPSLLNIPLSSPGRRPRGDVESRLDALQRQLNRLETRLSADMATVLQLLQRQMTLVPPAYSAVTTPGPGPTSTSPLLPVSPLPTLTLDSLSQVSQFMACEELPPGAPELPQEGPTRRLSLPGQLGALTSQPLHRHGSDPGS

On to `Cc1cc(/C=C/C#N)cc(C)c1-c1nccc2c(N)nc(Nc3ccc(C#N)cc3)nc12` [Compound 1, (E)-4-((4-Amino-8-(4-(2-cyanovinyl)-2,6-dimethylphenyl)pyrido[3,4-d]pyrimidin-2-yl)amino)benzonitrile], for which the EC50 with HIV-1 HBX2 (wild type) (setting [3]) came out at 2.1 nM; in the experiment with HIV-1 HBX2 (wild type) (setting [4]), 1.4 nM; in experiment [1] it was 2.3 nM; in experiment [2], 5.5 nM. In addition, the “FC against mutant K103N” value in experiment [1] came out at 1.7. The “FC against mutant Y181C” value in experiment [2] stood at 4.0.

Consider `Cc1cc(/C=C/C#N)cc(C)c1-c1cncc2c(N)nc(Nc3ccc(C#N)cc3)nc12` [Compound 2, (E)-4-((4-Amino-8-(4-(2-cyanovinyl)-2,6-dimethylphenyl)pyrido[4,3-d]pyrimidin-2-yl)amino)benzonitrile], for which the EC50 in the experiment with HIV-1 HBX2 (wild type) (setting [3]) turned out to be 6.1 nM; in the experiment on HIV-1 HBX2 (wild type) (setting [4]), 12.6 nM; in experiment [1], 14.3 nM; in experiment [2] it was 40.4 nM. For the same molecule, the “FC against mutant K103N” value in experiment [1] turned out to be 1.1. Besides, the “FC against mutant Y181C” value in experiment [2] is 3.2. Half-maximal inhibition at hERG channels (IC50) required 1700 nM.

Take `Cc1cc(/C=C/C#N)cc(C)c1-c1ccnc2c(N)nc(Nc3ccc(C#N)cc3)nc12` [Compound 3, (E)-4-((4-amino-8-(4-(2-cyanovinyl)-2,6-dimethylphenyl)pyrido[3,2-d]pyrimidin-2-yl)amino)benzonitrile]: in the experiment with HIV-1 HBX2 (wild type) (setting [3]), the EC50 came to 4.6 nM.
